In patent US20020137929A1, “1 - (3-heterocyclylphenyl) isothiourea, -isourea, -guanidine and -amidine herbicidal agents” (Intellectual Property Department, BASF Aktiengesellschaft, priority 1998, published 2002):

Columns and labels:
[1] = system: TRZAWR (Wheat, Winter, cv Riband); assay: Preemergence herbicidal evaluation; type: in vivo, Triticum aestivum; settings: rated 4-5 weeks after treatment
In short: (§1)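 Scores use a 0–9 visual scale covering stand, vigor, malformation, size and chlorosis relative to controls, rated four to five weeks after treatment. Before emergence, soil-planted seeds were sprayed with compound in aqueous acetone at roughly 0.0156–0.500 kg/ha and held in the greenhouse.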

ZEAMX (Corn, Field) [2] = assay: Preemergence herbicidal evaluation; type: in vivo, Zea mays; settings: rated 4-5 weeks after treatment
In short: as §1

ZEAMX (Corn, Field) [3] = assay: Postemergence herbicidal evaluation; type: in vivo, Zea mays; settings: postemergence
In short: (§2)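 Scores (0–9) reflect plant stand, vigor, malformation, size, chlorosis and general appearance relative to control, read 4 to 5 weeks after treatment and averaged where tests were repeated. Application: about 0.0156–0.500 kg/ha sprayed at 40 psi onto two-week seedlings.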

[4] = system: IPOHE (Morningglory, Ivyleaf); assay: Postemergence herbicidal evaluation; type: in vivo, Ipomoea hederacea; settings: postemergence
In short: as §2

[5] = system: GLXMAW (Soybean, Williams); assay: Preemergence herbicidal evaluation; type: in vivo, Glycine max, (L.) Merr. cv Williams; settings: rated 4-5 weeks after treatment
In short: as §1

CASOB (Sicklepod) = assay: Preemergence herbicidal evaluation; type: in vivo, Cassia obtusifolia; settings: rated 4-5 weeks after treatment
In short: as §1

[6] = system: CHEAL (Lambsquarters, Common); assay: Postemergence herbicidal evaluation; type: in vivo, Chenopodium album; settings: postemergence
In short: as §2

[7] = system: CHEAL (Lambsquarters, Common); assay: Preemergence herbicidal evaluation; type: in vivo, Chenopodium album; settings: rated 4-5 weeks after treatment
In short: as §1

ECHCG (Barnyardgrass) [8] = assay: Preemergence herbicidal evaluation; type: in vivo, Echinochloa crus-galli; settings: rated 4-5 weeks after treatment
In short: as §1

CYPSE (Flatsedge) = assay: Postemergence weed control under flooded paddy conditions; type: in vivo, Cyperus serotinus; settings: postemergence weeds, rated 3 to 4 weeks after treatment
In short: (§3)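 Herbicidal effect is judged by eye on a 0–9 scale versus control, 3–4 weeks after dosing. Dosing is into flood water kept 1.5–3 cm over the soil, at about 0.0313–0.500 kg/ha in aqueous/acetone 50/50 v/v, on 3–5 cm weeds and 1.5–2.5-leaf rice seedlings.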

ECHCG (Barnyardgrass) [9] = assay: Postemergence herbicidal evaluation; type: in vivo, Echinochloa crus-galli; settings: postemergence
In short: as §2

[10] = system: IPOHE (Morningglory, Ivyleaf); assay: Preemergence herbicidal evaluation; type: in vivo, Ipomoea hederacea; settings: rated 4-5 weeks after treatment
In short: as §1

ORYSAT (Rice, Tebonnet) = assay: Postemergence herbicidal evaluation; type: in vivo, Oryza sativa, (L.) Tebonnet; settings: postemergence
In short: as §2

SETVI (Foxtail, Green) = assay: Postemergence herbicidal evaluation; type: in vivo, Setaria viridis; settings: postemergence
In short: as §2

ABUTH (Velvetleaf) [11] = assay: Preemergence herbicidal evaluation; type: in vivo, Abutilon theophrasti; settings: rated 4-5 weeks after treatment
In short: as §1

CYPIR (Rice Flatsedge) = assay: Postemergence weed control under flooded paddy conditions; type: in vivo, Cyperus iria; settings: postemergence weeds, rated 3 to 4 weeks after treatment
In short: as §3

ABUTH (Velvetleaf) [12] = assay: Postemergence herbicidal evaluation; type: in vivo, Abutilon theophrasti; settings: postemergence
In short: as §2

COC(=O)[C@@H](Cc1ccccc1)N1C(=O)CSC1=Nc1cc(-n2c(=O)cc(C(F)(F)F)n(C)c2=O)c(F)cc1Cl [Compound 74, Methyl α-benzyl-2-{{2-chloro-5-[3,6-dihydro-3-methyl-2,6-dioxo-4-(trifluoromethyl)-1(2H)-pyrimidinyl]-4-fluorophenyl}imino}-4-oxo-3-thiazolidineacetate, D-]
Preemergence herbicidal rating TRZAWR ([1]; rate 0.0156 kg/ha): 0.0
Preemergence herbicidal rating TRZAWR ([1]; rate 0.0313 kg/ha): 0.0
Preemergence herbicidal rating TRZAWR ([1]; rate 0.0625 kg/ha): 1.0
Preemergence herbicidal rating TRZAWR ([1]; rate 0.1250 kg/ha): 1.0
Preemergence herbicidal rating TRZAWR ([1]; rate 0.2500 kg/ha): 1.0
Preemergence herbicidal rating ZEAMX (ZEAMX (Corn, Field) [2]; rate 0.0156 kg/ha): 0.0
Preemergence herbicidal rating ZEAMX (ZEAMX (Corn, Field) [2]; rate 0.0313 kg/ha): 0.0
Preemergence herbicidal rating ZEAMX (ZEAMX (Corn, Field) [2]; rate 0.0625 kg/ha): 0.0
Preemergence herbicidal rating ZEAMX (ZEAMX (Corn, Field) [2]; rate 0.1250 kg/ha): 1.0
Preemergence herbicidal rating ZEAMX (ZEAMX (Corn, Field) [2]; rate 0.2500 kg/ha): 1.0
ZEAMX herbicidal rating (ZEAMX (Corn, Field) [3]; rate 0.0158 kg/ha): 4.5
ZEAMX herbicidal rating (ZEAMX (Corn, Field) [3]; rate 0.0315 kg/ha): 5.0
ZEAMX herbicidal rating (ZEAMX (Corn, Field) [3]; rate 0.0630 kg/ha): 5.5
IPOHE herbicidal rating ([4]; rate 0.0158 kg/ha): 9.0
IPOHE herbicidal rating ([4]; rate 0.0315 kg/ha): 9.0
IPOHE herbicidal rating ([4]; rate 0.0630 kg/ha): 9.0
Preemergence herbicidal rating GLXMAW ([5]; rate 0.0156 kg/ha): 0.0
Preemergence herbicidal rating GLXMAW ([5]; rate 0.0313 kg/ha): 1.0
Preemergence herbicidal rating GLXMAW ([5]; rate 0.0625 kg/ha): 0.0
Preemergence herbicidal rating GLXMAW ([5]; rate 0.1250 kg/ha): 1.0
Preemergence herbicidal rating GLXMAW ([5]; rate 0.2500 kg/ha): 1.0
Preemergence herbicidal rating CASOB (CASOB (Sicklepod); rate 0.0156 kg/ha): 0.0
Preemergence herbicidal rating CASOB (CASOB (Sicklepod); rate 0.0313 kg/ha): 0.0
Preemergence herbicidal rating CASOB (CASOB (Sicklepod); rate 0.0625 kg/ha): 0.0
Preemergence herbicidal rating CASOB (CASOB (Sicklepod); rate 0.1250 kg/ha): 0.0
Preemergence herbicidal rating CASOB (CASOB (Sicklepod); rate 0.2500 kg/ha): 0.0
CHEAL herbicidal rating ([6]; rate 0.0158 kg/ha): 9.0
CHEAL herbicidal rating ([6]; rate 0.0315 kg/ha): 9.0
Preemergence herbicidal rating CHEAL ([7]; rate 0.0156 kg/ha): 9.0
Preemergence herbicidal rating CHEAL ([7]; rate 0.0313 kg/ha): 9.0
Preemergence herbicidal rating CHEAL ([7]; rate 0.0625 kg/ha): 9.0
Preemergence herbicidal rating CHEAL ([7]; rate 0.1250 kg/ha): 9.0
Preemergence herbicidal rating CHEAL ([7]; rate 0.2500 kg/ha): 9.0
Preemergence herbicidal rating ECHCG (ECHCG (Barnyardgrass) [8]; rate 0.0156 kg/ha): 0.0
Preemergence herbicidal rating ECHCG (ECHCG (Barnyardgrass) [8]; rate 0.0313 kg/ha): 0.0
Preemergence herbicidal rating ECHCG (ECHCG (Barnyardgrass) [8]; rate 0.0625 kg/ha): 1.0
Preemergence herbicidal rating ECHCG (ECHCG (Barnyardgrass) [8]; rate 0.1250 kg/ha): 0.0
Preemergence herbicidal rating ECHCG (ECHCG (Barnyardgrass) [8]; rate 0.2500 kg/ha): 1.0
Herbicidal rating CYPSE (CYPSE (Flatsedge); Rate 0.0313 kg/ha): 0.0
Herbicidal rating CYPSE (CYPSE (Flatsedge); Rate 0.0625 kg/ha): 5.0
Herbicidal rating CYPSE (CYPSE (Flatsedge); Rate 0.1250 kg/ha): 5.0
Herbicidal rating CYPSE (CYPSE (Flatsedge); Rate 0.2500 kg/ha): 9.0
ECHCG herbicidal rating (ECHCG (Barnyardgrass) [9]; rate 0.0158 kg/ha): 1.0
ECHCG herbicidal rating (ECHCG (Barnyardgrass) [9]; rate 0.0315 kg/ha): 1.0
ECHCG herbicidal rating (ECHCG (Barnyardgrass) [9]; rate 0.0630 kg/ha): 1.0
Preemergence herbicidal rating IPOHE ([10]; rate 0.0156 kg/ha): 0.0
Preemergence herbicidal rating IPOHE ([10]; rate 0.0625 kg/ha): 1.0
Preemergence herbicidal rating IPOHE ([10]; rate 0.1250 kg/ha): 0.0
Preemergence herbicidal rating IPOHE ([10]; rate 0.2500 kg/ha): 1.0
ORYSAT herbicidal rating (ORYSAT (Rice, Tebonnet); rate 0.0158 kg/ha): 3.5
ORYSAT herbicidal rating (ORYSAT (Rice, Tebonnet); rate 0.0315 kg/ha): 4.5
ORYSAT herbicidal rating (ORYSAT (Rice, Tebonnet); rate 0.0630 kg/ha): 5.5
SETVI herbicidal rating (SETVI (Foxtail, Green); rate 0.0158 kg/ha): 1.0
SETVI herbicidal rating (SETVI (Foxtail, Green); rate 0.0315 kg/ha): 1.0
SETVI herbicidal rating (SETVI (Foxtail, Green); rate 0.0630 kg/ha): 2.0
Preemergence herbicidal rating ABUTH (ABUTH (Velvetleaf) [11]; rate 0.0156 kg/ha): 0.0
Preemergence herbicidal rating ABUTH (ABUTH (Velvetleaf) [11]; rate 0.0313 kg/ha): 4.0
Preemergence herbicidal rating ABUTH (ABUTH (Velvetleaf) [11]; rate 0.0625 kg/ha): 9.0
Preemergence herbicidal rating ABUTH (ABUTH (Velvetleaf) [11]; rate 0.1250 kg/ha): 9.0
Preemergence herbicidal rating ABUTH (ABUTH (Velvetleaf) [11]; rate 0.2500 kg/ha): 9.0
Herbicidal rating CYPIR (CYPIR (Rice Flatsedge); Rate 0.0313 kg/ha): 0.0
Herbicidal rating CYPIR (CYPIR (Rice Flatsedge); Rate 0.0625 kg/ha): 0.0
Herbicidal rating CYPIR (CYPIR (Rice Flatsedge); Rate 0.1250 kg/ha): 0.0
Herbicidal rating CYPIR (CYPIR (Rice Flatsedge); Rate 0.2500 kg/ha): 0.0
ABUTH herbicidal rating (ABUTH (Velvetleaf) [12]; rate 0.0158 kg/ha): 9.0
ABUTH herbicidal rating (ABUTH (Velvetleaf) [12]; rate 0.0315 kg/ha): 9.0
ABUTH herbicidal rating (ABUTH (Velvetleaf) [12]; rate 0.0630 kg/ha): 9.0
